Source: PubChem BioAssay (NCI)
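Cultured in 96-well plates, cells were exposed to test compound for 48 hours across five concentrations. Abbreviation: GI50, concentration required for 50% inhibition of growth. At the TGI there is no net growth.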

Experiments:
Assay in all cases: inhibition of tumour cell growth, NCI panel, 48 h
HCT-116 colon = tested on: HCT-116 colon
OVCAR-3 ovarian = tested on: OVCAR-3 ovarian
HCT-15 colon = tested on: HCT-15 colon
HT29 colon = tested on: HT29 colon
NCI-H460 lung = tested on: NCI-H460 lung
COLO 205 colon = tested on: COLO 205 colon
HOP-92 NSCLC = tested on: HOP-92 NSCLC
K-562 leukemia = tested on: K-562 leukemia
UACC-257 melanoma = tested on: UACC-257 melanoma
LOX IMVI melanoma = tested on: LOX IMVI melanoma
SK-MEL-28 melanoma = tested on: SK-MEL-28 melanoma
SF-295 CNS = tested on: SF-295 CNS
A498 renal = tested on: A498 renal
ACHN renal = tested on: ACHN renal
UACC-62 melanoma = tested on: UACC-62 melanoma
MDA-MB-435 = tested on: MDA-MB-435
TK-10 renal = tested on: TK-10 renal
IGROV1 ovarian = tested on: IGROV1 ovarian
HCC-2998 colon = tested on: HCC-2998 colon
DU-145 prostate = tested on: DU-145 prostate
CCRF-CEM leukemia = tested on: CCRF-CEM leukemia
T-47D breast = tested on: T-47D breast
OVCAR-5 ovarian = tested on: OVCAR-5 ovarian
BT-549 breast = tested on: BT-549 breast
UO-31 renal = tested on: UO-31 renal
OVCAR-4 ovarian = tested on: OVCAR-4 ovarian
SK-OV-3 ovarian = tested on: SK-OV-3 ovarian
HS 578T breast = tested on: HS 578T breast
RXF 393 renal = tested on: RXF 393 renal
SF-539 CNS = tested on: SF-539 CNS
NCI-H226 lung = tested on: NCI-H226 lung
SK-MEL-5 melanoma = tested on: SK-MEL-5 melanoma
NCI/ADR-RES ovarian = tested on: NCI/ADR-RES ovarian
M14 melanoma = tested on: M14 melanoma
SN12C renal = tested on: SN12C renal
EKVX NSCLC = tested on: EKVX NSCLC
MDA-MB-231 breast = tested on: MDA-MB-231 breast
NCI-H522 lung = tested on: NCI-H522 lung
HL-60(TB) leukemia = tested on: HL-60(TB) leukemia
786-0 renal = tested on: 786-0 renal
CAKI-1 renal = tested on: CAKI-1 renal
U251 CNS = tested on: U251 CNS
SF-268 CNS = tested on: SF-268 CNS
SW-620 colon = tested on: SW-620 colon
KM12 colon = tested on: KM12 colon
NCI-H23 lung = tested on: NCI-H23 lung
RPMI-8226 leukemia = tested on: RPMI-8226 leukemia
SNB-75 CNS = tested on: SNB-75 CNS
SR leukemia = tested on: SR leukemia
MOLT-4 leukemia = tested on: MOLT-4 leukemia
SK-MEL-2 melanoma = tested on: SK-MEL-2 melanoma
HOP-62 NSCLC = tested on: HOP-62 NSCLC
SNB-19 CNS = tested on: SNB-19 CNS
PC-3 prostate = tested on: PC-3 prostate
MCF7 breast = tested on: MCF7 breast
A549 NSCLC = tested on: A549 NSCLC

SMILES: NC1CCC(Nc2nc(NCc3cc(Cl)ccc3O)c3ncn(C4CCCC4)c3n2)CC1 (configuration not stated)
- GI50 (HCT-116 colon): 64.4 nM
- TGI (HCT-116 colon): 660 nM
- GI50 (OVCAR-3 ovarian): 133 nM
- TGI (OVCAR-3 ovarian): 640 nM
- GI50 (HCT-15 colon): 259 nM
- TGI (HCT-15 colon): 966 nM
- GI50 (HT29 colon): 220 nM
- TGI (HT29 colon): 755 nM
- GI50 (NCI-H460 lung): 125 nM
- TGI (NCI-H460 lung): 958 nM
- GI50 (COLO 205 colon): 96.5 nM
- TGI (COLO 205 colon): 238 nM
- GI50 (HOP-92 NSCLC): 163 nM
- TGI (HOP-92 NSCLC): 630 nM
- GI50 (K-562 leukemia): 175 nM
- TGI (K-562 leukemia): 461 nM
- GI50 (UACC-257 melanoma): 180 nM
- TGI (UACC-257 melanoma): 387 nM
- GI50 (LOX IMVI melanoma): 537 nM
- TGI (LOX IMVI melanoma): 5000 nM
- GI50 (SK-MEL-28 melanoma): 153 nM
- TGI (SK-MEL-28 melanoma): 340 nM
- GI50 (SF-295 CNS): 159 nM
- TGI (SF-295 CNS): 542 nM
- GI50 (A498 renal): 211 nM
- TGI (A498 renal): 484 nM
- GI50 (ACHN renal): 183 nM
- TGI (ACHN renal): 527 nM
- GI50 (UACC-62 melanoma): 149 nM
- TGI (UACC-62 melanoma): 335 nM
- GI50 (MDA-MB-435): 149 nM
- TGI (MDA-MB-435): 328 nM
- GI50 (TK-10 renal): 332 nM
- TGI (TK-10 renal): 979 nM
- GI50 (IGROV1 ovarian): 204 nM
- TGI (IGROV1 ovarian): 771 nM
- GI50 (HCC-2998 colon): 201 nM
- TGI (HCC-2998 colon): 603 nM
- GI50 (DU-145 prostate): 207 nM
- TGI (DU-145 prostate): 1020 nM
- GI50 (CCRF-CEM leukemia): 127 nM
- TGI (CCRF-CEM leukemia): 532 nM
- GI50 (T-47D breast): 259 nM
- TGI (T-47D breast): 858 nM
- GI50 (OVCAR-5 ovarian): 242 nM
- TGI (OVCAR-5 ovarian): 1160 nM
- GI50 (BT-549 breast): 262 nM
- TGI (BT-549 breast): 877 nM
- GI50 (UO-31 renal): 227 nM
- TGI (UO-31 renal): 599 nM
- GI50 (OVCAR-4 ovarian): 183 nM
- TGI (OVCAR-4 ovarian): 778 nM
- GI50 (SK-OV-3 ovarian): 494 nM
- TGI (SK-OV-3 ovarian): 1650 nM
- GI50 (HS 578T breast): 222 nM
- TGI (HS 578T breast): 893 nM
- GI50 (RXF 393 renal): 120 nM
- TGI (RXF 393 renal): 277 nM
- GI50 (SF-539 CNS): 166 nM
- TGI (SF-539 CNS): 341 nM
- GI50 (NCI-H226 lung): 247 nM
- TGI (NCI-H226 lung): 2780 nM
- GI50 (SK-MEL-5 melanoma): 175 nM
- TGI (SK-MEL-5 melanoma): 325 nM
- GI50 (NCI/ADR-RES ovarian): 156 nM
- TGI (NCI/ADR-RES ovarian): 316 nM
- GI50 (M14 melanoma): 162 nM
- TGI (M14 melanoma): 330 nM
- GI50 (SN12C renal): 143 nM
- TGI (SN12C renal): 759 nM
- GI50 (EKVX NSCLC): 262 nM
- TGI (EKVX NSCLC): 928 nM
- GI50 (MDA-MB-231 breast): 186 nM
- TGI (MDA-MB-231 breast): 759 nM
- GI50 (NCI-H522 lung): 152 nM
- TGI (NCI-H522 lung): 335 nM
- GI50 (HL-60(TB) leukemia): 165 nM
- TGI (HL-60(TB) leukemia): 388 nM
- GI50 (786-0 renal): 211 nM
- TGI (786-0 renal): 624 nM
- GI50 (CAKI-1 renal): 295 nM
- TGI (CAKI-1 renal): 1570 nM
- GI50 (U251 CNS): 140 nM
- TGI (U251 CNS): 444 nM
- GI50 (SF-268 CNS): 188 nM
- TGI (SF-268 CNS): 520 nM
- GI50 (SW-620 colon): 150 nM
- TGI (SW-620 colon): 922 nM
- GI50 (KM12 colon): 132 nM
- TGI (KM12 colon): 1020 nM
- GI50 (NCI-H23 lung): 153 nM
- TGI (NCI-H23 lung): 478 nM
- GI50 (RPMI-8226 leukemia): 202 nM
- TGI (RPMI-8226 leukemia): 474 nM
- GI50 (SNB-75 CNS): 114 nM
- TGI (SNB-75 CNS): 330 nM
- GI50 (SR leukemia): 42.2 nM
- TGI (SR leukemia): 237 nM
- GI50 (MOLT-4 leukemia): 133 nM
- TGI (MOLT-4 leukemia): 492 nM
- GI50 (SK-MEL-2 melanoma): 188 nM
- TGI (SK-MEL-2 melanoma): 356 nM
- GI50 (HOP-62 NSCLC): 245 nM
- TGI (HOP-62 NSCLC): 813 nM
- GI50 (SNB-19 CNS): 202 nM
- TGI (SNB-19 CNS): 1010 nM
- GI50 (PC-3 prostate): 160 nM
- TGI (PC-3 prostate): 592 nM
- GI50 (MCF7 breast): 104 nM
- TGI (MCF7 breast): 318 nM
- GI50 (A549 NSCLC): 193 nM
- TGI (A549 NSCLC): 713 nM
